The experiment concerns Saccharomyces cerevisiae. Put plainly: Antifungal activity against Saccharomyces cerevisiae. It is filed as functional, organism-based.

Calls of active or inactive are those of the source. The rule behind the calls is not given here.

`CCCCCCCC1=CC(=O)C(O)(CCCCCC)O1` (stereo unspecified): the outcome was inactive.

Values taken from ChEMBL document CHEMBL1158790, “Pseudopyronines A and B, alpha-pyrones produced by a marine Pseudomonas sp. F92S91, and evidence for the conversion of 4-hydroxy-alpha-pyrone to 3-furanone” (J Nat Prod, 2005).
